# Measured values published in patent US20160220464A1 (WUHAN OPTICS VALLEY BRIDGEBIOMED INTERNATIONAL CORPORATION, priority 2013, published 2016).
# What was measured:
# B2 receptor = target: T1, B2 receptor (Homo sapiens, UniProt P30411); assay: Relative PG secretion with B2 receptor inhibitor HOE-140; format: cell-based; conditions: 1 μM BK set as 100%
# T1 construct: The cell strains used in the study were human primary vein endothelial cells (HPVEC) and human aortic smooth muscle cells (HASMC); endogenous in cells; host or cells: human primary vein endothelial cells (HPVEC) and human aortic smooth muscle cells (HASMC)
# T1 sequence (P30411 1-391): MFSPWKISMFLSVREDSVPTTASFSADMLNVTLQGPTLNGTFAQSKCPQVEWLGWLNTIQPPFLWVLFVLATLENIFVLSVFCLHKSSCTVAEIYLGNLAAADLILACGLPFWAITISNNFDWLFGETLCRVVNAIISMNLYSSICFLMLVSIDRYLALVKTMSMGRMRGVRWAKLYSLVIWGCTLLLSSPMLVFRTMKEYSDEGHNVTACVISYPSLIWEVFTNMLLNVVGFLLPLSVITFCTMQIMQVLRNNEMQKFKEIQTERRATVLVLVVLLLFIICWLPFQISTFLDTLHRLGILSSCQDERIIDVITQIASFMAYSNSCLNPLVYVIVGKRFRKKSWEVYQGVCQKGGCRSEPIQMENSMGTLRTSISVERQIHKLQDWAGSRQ
# Method: Two different cell lines were transferred into T-75 cell culture flask, and then the instructions of PG kit were strictly followed when cells have reached the appropriate density. Day 1. Cells were seeded in 24 well dishes with minimum medium and allowed to adhere overnight. Day 2. Cells were starved in the serum-free conditioned medium. Day 3. […] Cells were incubated at 37° C. for 1 h. The supernatant was collected after incubation for later use. Day 4. 24 well dishes were washed and then dyed for 45-90 min, and then the quantitative analysis was carried out.
# BK B2 receptor = target: T2, BK B2 receptor (Homo sapiens, UniProt P30411); assay: Relative amount of PG secretion in cell supernatant by enzyme immunoassay (EIA); format: cell-based; conditions: 1 h, 1 μM BK set as 100%
# T2 construct: The cell strains used in the study were human primary vein endothelial cells (HPVEC) and human aortic smooth muscle cells (HASMC); endogenous in cells; host or cells: human primary vein endothelial cells (HPVEC) and human aortic smooth muscle cells (HASMC)
# T2 sequence (P30411 1-391): T1 sequence (P30411 1-391)
# Method: YLB-01, YLB-02 and YLB-03 were selected for the study as described below in Table 1, and BK was used as control. Implantation Two cell lines were transferred into T-75 cell culture flask, and then the instructions of PG kit were strictly followed when cells have reached the appropriate density. Day 1 Cells were seeded in 24 well dishes with minimum medium and allowed to adhere overnight. Day 2 Cells were starved in the serum-free conditioned medium. […] The supernatant was collected after incubation for later use. Day 4 24 well dishes were washed and then dyed for 45-90 min, and then the OD value was measured for analysis. […] In order to detect endogenous prostaglandin, enzyme immunoassay (EIA) was used to determine the amount of prostaglandin and subtypes thereof in the cell supernatant described above.
# human lower leg hair = assay: Hair growth after topical 0.3% suspension on human lower leg; format: in vivo; conditions: twice a day
# Text: (§1) The B2 receptor agonist (YLB-01) suspension with 0.3% concentration was obtained for clinical use as described above. The suspension was applied to human lower leg twice a day, for 3 months; hair growth was observed. The treated areas were observed daily to monitor hair growth and side effects, e.g. swelling, pruritus, pain, etc. And the treated parts were photographed weekly.
# as §1, with “above and” for “above. The suspension”
smiles,measurement,setting,value
"CNC(=O)c1ccc(CCC(=O)NCC(=O)N(C)c2ccc(Cl)c(COc3cccc4c3nc(OC)n4Cc3ccccn3)c2Cl)cc1 [YLB-01, 4-(3-2-((2,4-dichloro-3-((2-methoxy-1-(pyridine-2ylmethyl)-1H-benzo[d]imidazol-4-yloxy)methyl)phenyl)(methyl)amino-2-oxoethylamino)-3-oxopropyl)-N-methylbenzamid]",Relative PG Secretion Amount with 1 μM HOE-140,B2 receptor; agonist 0.1 nM + HOE-140 1 μM,1.54 ± 2.53%
same,Relative PG Secretion Amount with 1 μM HOE-140,B2 receptor; agonist 1 nM + HOE-140 1 μM,4.21 ± 3.74%
same,Relative PG Secretion Amount with 1 μM HOE-140,B2 receptor; agonist 10 nM + HOE-140 1 μM,4.17 ± 3.21%
same,Relative PG Secretion Amount with 1 μM HOE-140,B2 receptor; agonist 30 nM + HOE-140 1 μM,2.86 ± 2.35%
same,Relative PG Secretion Amount with 1 μM HOE-140,B2 receptor; agonist 100 nM + HOE-140 1 μM,3.44 ± 3.77%
same,Relative PG Secretion Amount with 1 μM HOE-140,B2 receptor; agonist 300 nM + HOE-140 1 μM,0.45 ± 2.86%
same,Relative PG Secretion Amount with 1 μM HOE-140,B2 receptor; agonist 1 μM + HOE-140 1 μM,3.66 ± 2.11%
same,Relative PG Secretion Amount with 1 μM HOE-140,B2 receptor; agonist 3 μM + HOE-140 1 μM,6.98 ± 1.6%
same,Relative PG Secretion Amount with 1 μM HOE-140,B2 receptor; agonist 10 μM + HOE-140 1 μM,40.32 ± 3.27%
same,activation at 0.0001 µM,BK B2 receptor; 0.1 nM,0%
same,activation at 0.001 µM,BK B2 receptor; 1 nM,7.69 ± 2.19%
same,activation at 0.01 µM,BK B2 receptor; 10 nM,~50%
same,activation at 0.03 µM,BK B2 receptor; 30 nM,53.7 ± 4.56%
same,activation at 0.1 µM,BK B2 receptor; 100 nM,73.4 ± 2.7%
same,activation at 0.3 µM,BK B2 receptor; 300 nM,83.8 ± 6.45%
same,activation at 1 µM,BK B2 receptor; 1 μM,87 ± 3.76%
same,activation at 3 µM,BK B2 receptor; 3 μM,87.8 ± 4.2%
same,activation at 10 µM,BK B2 receptor; 10 μM,86.5 ± 7.44%
same,hair growth,human lower leg hair; 0 week,0 mm
same,hair growth,human lower leg hair; 2 weeks,4.89 ± 0.38 mm
same,hair growth,human lower leg hair; 3 weeks,6.82 ± 0.4 mm
same,hair growth,human lower leg hair; 4 weeks,9.61 ± 0.55 mm
same,"hair growth compared with control group (photos, FIG. 2)",human lower leg hair; 3 months,hairs grew more quickly than those in control group
same,"new hair growth in parts used to be bald (photos, FIG. 1)",human lower leg hair; 3 months,tiny new hairs grew out
